Experimental data from US9493446B2, “Orexin receptor antagonists which are [ortho bi-(hetero-)aryl]-[2-(meta bi-(hetero-)aryl)-pyrrolidin-1-yl]-methanone derivatives” (Actelion Pharmaceuticals Ltd, priority 2012, dated 2016).
Where two headings read alike, the source gives them in different places.

How the values were obtained:
[1] = target: orexin-1 (Homo sapiens (Human), UniProt O43613); test: Intracellular calcium measurement (FLIPR), CHO cells expressing human orexin-1 receptor, 3 nM orexin-A; format: cell-based; details: read-out: IC50 OX1
orexin-1, sequence (O43613 whole entry): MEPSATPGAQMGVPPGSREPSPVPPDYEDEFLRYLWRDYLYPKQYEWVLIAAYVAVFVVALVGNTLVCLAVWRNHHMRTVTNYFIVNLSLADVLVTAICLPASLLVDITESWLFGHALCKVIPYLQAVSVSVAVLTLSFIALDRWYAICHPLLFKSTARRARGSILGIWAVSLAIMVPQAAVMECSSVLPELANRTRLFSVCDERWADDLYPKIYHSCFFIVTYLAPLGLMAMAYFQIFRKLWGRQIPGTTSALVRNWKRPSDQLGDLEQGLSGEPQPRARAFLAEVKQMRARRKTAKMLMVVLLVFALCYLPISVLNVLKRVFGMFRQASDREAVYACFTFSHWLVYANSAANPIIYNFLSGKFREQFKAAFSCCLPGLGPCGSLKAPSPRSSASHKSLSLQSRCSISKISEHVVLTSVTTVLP
Method in brief: (§1)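 Fluo-4 AM-loaded CHO cells; antagonist preincubation 120 min, then 3 nM orexin-A (final) in HBSS/0.1% BSA/20 mM HEPES. FLIPR read at 1 s intervals; peak height vs. agonist-plus-vehicle control → IC50.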

[2] = target: human orexin-2 receptor (Homo sapiens (Human), UniProt O43614); test: Intracellular calcium measurement (FLIPR), CHO cells expressing human orexin-2 receptor, 3 nM orexin-A; format: cell-based; details: read-out: IC50 OX2
human orexin-2 receptor, sequence (O43614 whole entry): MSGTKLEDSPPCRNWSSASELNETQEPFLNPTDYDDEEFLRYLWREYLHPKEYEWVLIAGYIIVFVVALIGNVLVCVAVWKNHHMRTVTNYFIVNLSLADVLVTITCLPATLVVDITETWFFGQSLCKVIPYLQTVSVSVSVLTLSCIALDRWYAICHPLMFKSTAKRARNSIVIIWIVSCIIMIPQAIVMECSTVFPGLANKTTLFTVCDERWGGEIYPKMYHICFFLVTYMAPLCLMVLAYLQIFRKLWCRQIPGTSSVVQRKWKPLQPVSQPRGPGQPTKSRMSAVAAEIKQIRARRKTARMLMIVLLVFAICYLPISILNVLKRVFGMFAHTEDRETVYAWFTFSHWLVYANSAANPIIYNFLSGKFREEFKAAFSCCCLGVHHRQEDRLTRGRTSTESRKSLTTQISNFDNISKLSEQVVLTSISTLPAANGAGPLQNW
Method in brief: as §1

[3] = CHO cells expressing human orexin-1 receptor, FLIPR, 3 nM orexin-A, geometric mean if determined several times
[4] = CHO cells expressing human orexin-2 receptor, FLIPR, 3 nM orexin-A, geometric mean if determined several times

Compound | IC50 [1, 3] | IC50 [2, 4] | IC50 [1] | IC50 [2]
Cc1cccc(-n2nccn2)c1C(=O)N1CCC[C@H]1c1nc(-c2ccccc2OC(F)(F)F)no1 [compound 149, (2-Methyl-6-[1,2,3]triazol-2-yl-phenyl)-{(S)-2-[3-(2-trifluoromethoxy-phenyl)-[1,2,4]oxadiazol-5-yl]-pyrrolidin-1-yl}-methanone] | 184 nM | 85 nM | – | –
CCOc1ncccc1-c1noc([C@@H]2CCCN2C(=O)c2cc(C)c(C)cc2-n2nccn2)n1 [compound 212, (4,5-Dimethyl-2-[1,2,3]triazol-2-yl-phenyl)-{(S)-2-[3-(2-ethoxy-pyridin-3-yl)-[1,2,4]oxadiazol-5-yl]-pyrrolidin-1-yl}-methanone] | 6 nM | 3 nM | – | –
Cc1cc(-n2nccn2)c(C(=O)N2CCC[C@H]2c2nnc(-c3ccccc3OC(F)(F)F)[nH]2)cc1Cl [compound 500] | 8 nM | 2 nM | – | –
CCOc1ccccc1-c1noc([C@@H]2CCCN2C(=O)c2ccccc2-n2nccn2)n1 [compound 260, {(S)-2-[3-(2-Ethoxy-phenyl)-[1,2,4]oxadiazol-5-yl]-pyrrolidin-1-yl}-(2-[1,2,3]triazol-2-yl-phenyl)-methanone] | 392 nM | 63 nM | – | –
COc1cc(C(=O)N2CCC[C@H]2c2nnc(-c3ccccc3OC)[nH]2)c(-n2nccn2)cc1Cl [compound 467] | 63 nM | 10 nM | – | –
Cc1cc(C(=O)N2CCC[C@H]2c2nnc(-c3cccc(Cl)c3C)o2)c(-n2nccn2)cc1C [compound 447] | 30 nM | 5 nM | – | –
CCOc1ncccc1-c1nnc([C@@H]2CCCN2C(=O)c2cc(OC)c(C)cc2-n2nccn2)[nH]1 [compound 479, {(S)-2-[5-(2-Ethoxy-pyridin-3-yl)-4H-[1,2,4]triazol-3-yl]-pyrrolidin-1-yl}-(5-methoxy-4-methyl-2-[1,2,3]triazol-2-yl-phenyl)-methanone] | 21 nM | 17 nM | – | –
COc1c(Cl)cccc1-c1nc([C@@H]2CCCN2C(=O)c2cc(C)ccc2-n2nccn2)no1 [compound 351] | – | 4 nM | 22 nM | –
O=C(c1cccc(F)c1-n1nccn1)N1CCC[C@H]1c1nc(-c2ccccc2OC(F)(F)F)no1 [compound 165, (3-Fluoro-2-[1,2,3]triazol-2-yl-phenyl)-{(S)-2-[3-(2-trifluoromethoxy-phenyl)-[1,2,4]oxadiazol-5-yl]-pyrrolidin-1-yl}-methanone] | 286 nM | 79 nM | – | –
COc1c(F)cccc1-c1noc([C@@H]2CCCN2C(=O)c2ccc(C)c(C)c2-n2nccn2)n1 [compound 272, (3,4-Dimethyl-2-[1,2,3]triazol-2-yl-phenyl)-{(S)-2-[3-(3-fluoro-2-methoxy-phenyl)-[1,2,4]oxadiazol-5-yl]-pyrrolidin-1-yl}-methanone] | 149 nM | 252 nM | – | –
Cc1ccc(-n2cccn2)c(C(=O)N2CCC[C@H]2c2nc(-c3ccccc3OC(F)(F)F)no2)c1 [compound 137, (5-Methyl-2-pyrazol-1-yl-phenyl)-{(S)-2-[3-(2-trifluoromethoxy-phenyl)-[1,2,4]oxadiazol-5-yl]-pyrrolidin-1-yl}-methanone] | 33 nM | 23 nM | – | –
Cc1cccc(-c2nc([C@@H]3CCCN3C(=O)c3ccc(Cl)cc3-n3nccn3)no2)c1C [compound 397] | – | 5 nM | 85 nM | –
Cc1c(Cl)cccc1-c1noc([C@@H]2CCCN2C(=O)c2ccccc2-c2ncco2)n1 [compound 120] | 483 nM | – | – | 37 nM
Cc1c(Cl)cccc1-c1noc([C@@H]2CCCN2C(=O)c2cccc(F)c2-c2ccn[nH]2)n1 [compound 117] | – | 5 nM | 211 nM | –
Cc1ccc(-n2nccn2)c(C(=O)N2CCC[C@H]2c2nc(-c3ccccc3Cl)no2)c1 [compound 21] | 339 nM | 19 nM | – | –
COc1cc(C(=O)N2CCC[C@H]2c2nnc(-c3cccc(Cl)c3OC)[nH]2)c(-n2nccn2)cc1C [compound 490, {(S)-2-[5-(3-Chloro-2-methoxy-phenyl)-4H-[1,2,4]triazol-3-yl]-pyrrolidin-1-yl}-(5-methoxy-4-methyl-2-[1,2,3]triazol-2-yl-phenyl)-methanone] | 120 nM | 2 nM | – | –
Cc1ccc(C(=O)N2CCC[C@@]2(C)c2nnc(-c3cccc(Cl)c3C)[nH]2)c(-n2nccn2)c1 [compound 551] | 43 nM | 24 nM | – | –
O=C(c1ccc(Cl)cc1-n1nccn1)N1CCC[C@H]1c1nc(-c2ccccc2OC(F)(F)F)no1 [compound 172] | 56 nM | – | – | 18 nM

Continued, in another order:

IC50 [1, 3] | IC50 [2, 4] | Compound | IC50 [1] | IC50 [2]
626 nM | 90 nM | Cc1cccc(C(=O)N2CCC[C@H]2c2nc(-c3cccc(F)c3C)no2)c1-n1nccn1 [compound 251, {(S)-2-[3-(3-Fluoro-2-methyl-phenyl)-[1,2,4]oxadiazol-5-yl]-pyrrolidin-1-yl}-(3-methyl-2-[1,2,3]triazol-2-yl-phenyl)-methanone] | – | –
112 nM | 108 nM | COc1ccc2[nH]cc(-c3noc([C@@H]4CCCN4C(=O)c4cc(C)ccc4-n4nccn4)n3)c2c1 [compound 42, {(S)-2-[3-(5-Methoxy-1H-indol-3-yl)-[1,2,4]oxadiazol-5-yl]-pyrrolidin-1-yl}-(5-methyl-2-[1,2,3]triazol-2-yl-phenyl)-methanone] | – | –
535 nM | 326 nM | Cc1cc(C)cc(-c2nnc([C@@H]3CCCN3C(=O)c3cc(C)ccc3-n3nccn3)o2)c1 [Example 451, {(S)-2-[5-(3,5-Dimethyl-phenyl)-[1,3,4]oxadiazol-2-yl]-pyrrolidin-1-yl}-(5-methyl-2-[1,2,3]triazol-2-yl-phenyl)-methanone] | – | –
600 nM | 177 nM | Cc1ccc(-n2nccn2)c(C(=O)N2CCC[C@H]2c2nc(-c3ccc(F)c(F)c3)no2)c1 [compound 20, {(S)-2-[3-(3,4-Difluoro-phenyl)-[1,2,4]oxadiazol-5-yl]-pyrrolidin-1-yl}-(5-methyl-2-[1,2,3]triazol-2-yl-phenyl)-methanone] | – | –
946 nM | 105 nM | Cc1ccc(-n2nccn2)c(C(=O)N2CCC[C@H]2c2nnc(-c3ccccc3C)o2)c1 [compound 441, (5-Methyl-2-[1,2,3]triazol-2-yl-phenyl)-[(S)-2-(5-o-tolyl-[1,3,4]oxadiazol-2-yl)-pyrrolidin-1-yl]-methanone] | – | –
709 nM | 45 nM | COc1cccc(-c2cnc([C@@H]3CCCN3C(=O)c3cc(C)ccc3-n3nccn3)[nH]2)c1 [compound 524, {(S)-2-[5-(3-Methoxy-phenyl)-1H-imidazol-2-yl]-pyrrolidin-1-yl}-(5-methyl-2-[1,2,3]triazol-2-yl-phenyl)-methanone] | – | –
184 nM | 118 nM | Cc1ccc(-n2nccn2)c(C(=O)N2CCC[C@H]2c2nnc(-c3ccccc3OC(F)(F)F)o2)c1 [compound 442, (5-Methyl-2-[1,2,3]triazol-2-yl-phenyl)-{(S)-2-[5-(2-trifluoromethoxy-phenyl)-[1,3,4]oxadiazol-2-yl]-pyrrolidin-1-yl}-methanone] | – | –
136 nM | 14 nM | COc1c(Cl)cccc1-c1nnc([C@@H]2CCCN2C(=O)c2cc(C)ccc2-n2nccn2)[nH]1 [compound 488, {(S)-2-[5-(3-Chloro-2-methoxy-phenyl)-4H-[1,2,4]triazol-3-yl]-pyrrolidin-1-yl}-(5-methyl-2-[1,2,3]triazol-2-yl-phenyl)-methanone] | – | –
1490 nM | 359 nM | Cc1cccc(-c2nnc([C@@H]3CCCN3C(=O)c3cc(C)ccc3-n3nccn3)o2)c1 [Example 438, (5-Methyl-2-[1,2,3]triazol-2-yl-phenyl)-[(S)-2-(5-m-tolyl-[1,3,4]oxadiazol-2-yl)-pyrrolidin-1-yl]-methanone] | – | –
182 nM | 25 nM | Cc1ccc(-n2nccn2)c(C(=O)N2CCC[C@H]2c2nc(-c3cccc4c3OCO4)no2)c1 [compound 52, [(S)-2-(3-Benzo[1,3]dioxol-4-yl-[1,2,4]oxadiazol-5-yl)-pyrrolidin-1-yl]-(5-methyl-2-[1,2,3]triazol-2-yl-phenyl)-methanone] | – | –
53 nM | 16 nM | CCOc1ncccc1-c1noc([C@@H]2CCCN2C(=O)c2cc(OC)ccc2-n2nccn2)n1 [compound 220, {(S)-2-[3-(2-Ethoxy-pyridin-3-yl)-[1,2,4]oxadiazol-5-yl]-pyrrolidin-1-yl}-(5-methoxy-2-[1,2,3]triazol-2-yl-phenyl)-methanone] | – | –
55 nM | 15 nM | COc1c(F)cccc1-c1nnc([C@@H]2CCCN2C(=O)c2ccc(C)cc2-n2nccn2)[nH]1 [compound 477, {(S)-2-[5-(3-Fluoro-2-methoxy-phenyl)-4H-[1,2,4]triazol-3-yl]-pyrrolidin-1-yl}-(4-methyl-2-[1,2,3]triazol-2-yl-phenyl)-methanone] | – | –
373 nM | 40 nM | Cc1ccc(-n2nccn2)c(C(=O)N2CCC[C@H]2c2nc(-c3ccccc3)no2)c1 [Example 1, (5-Methyl-2-[1,2,3]triazol-2-yl-phenyl)-[(S)-2-(3-phenyl-[1,2,4]oxadiazol-5-yl)-pyrrolidin-1-yl]-methanone] | – | –
307 nM | 32 nM | COc1c(F)cccc1-c1noc([C@@H]2CCCN2C(=O)c2cc(F)ccc2-n2nccn2)n1 [compound 200, {(S)-2-[3-(3-Fluoro-2-methoxy-phenyl)-[1,2,4]oxadiazol-5-yl]-pyrrolidin-1-yl}-(5-fluoro-2-[1,2,3]triazol-2-yl-phenyl)-methanone] | – | –
1410 nM | 341 nM | COc1ccccc1-c1noc([C@@H]2CCCN2C(=O)c2cc(F)ccc2-n2nccn2)n1 [compound 233, (5-Fluoro-2-[1,2,3]triazol-2-yl-phenyl)-{(S)-2-[3-(2-methoxy-phenyl)-[1,2,4]oxadiazol-5-yl]-pyrrolidin-1-yl}-methanone] | – | –
